# Source: patent US20250332397A1, “SYSTEMS AND METHODS FOR MICRONEEDLE THERAPEUTIC DELIVERY WITH ACOUSTIC SIGNALS” (THE TRUSTEES OF INDIANA UNIVERSITY, priority 2021, published 2025)
# Experiments:
# [1] = Ex vivo delivery in mice skin tissues (dye released, absorbance); format: in vitro ADME, BALB/c mice; details: FIG. 10; 1 Mhz, duty cycle 15%, 4.2 w/cm^2; 30 s, 60 s, 180 s
# Description: The prepared RhB dye (or epinephrine) loaded acoustic patches (or passive patches) were inserted into the fresh hair removed skin tissues harvested from BALB/c mice, and removed from the mice skin tissues. The acoustic path treatment condition (frequency, 1 Mhz; duty cycle, 15%; energy density, 4.2 w/cm^2) was applied to three mouse skin tissues, while there was not acoustic stimulation for passive patch treatments. The mouse skin tissues after acoustic patch and passive treatments with three different treatment time (e.g., 30 s, 60 s, or 180 s) were analyzed.
# [2] = acoustic patch mediated delivery, mouse "B"
# Description for anaphylactic mouse model: Olbumin from chicken egg white (OVA) was used as antigen to induce anaphylaxis, where OVA dosage could regulate the degree of anaphylaxis. Specifically, an OVA solution as an adjuvant was prepared in 1 mg/mL of OVA with 1 μg/mL of Pertussis toxin and 10 mg/mL of aluminum potassium sulfate in 0.9% saline. To sensitize mice, BALB/c mice were injected intraperitoneally with 100 μL of the adjuvant OVA solution. After 3 weeks, these actively sensitize mice were challenged with 10 mg/mL of the adjuvant OVA solution. To trigger the anaphylactic reaction, a 50 μL of 10 mg/mL OVA solution in 0.9% saline was injected intraperitoneally into a mouse. The whole anaphylactic process lasted for about 120 mins, and all the mice were sacrificed after the experimental procedures.
# The mice during anaphylaxis were characterized via physiological parameters and symptoms including rectal temperature, movement score, respiratory rate, or blood histamine level. Rectal temperature was measured using a rectal probe for mice in every 2 min in real-time. Respiratory rate was measured through counting the breaths during every 20 seconds through observing the thoracic movement. Movement score was tested by rules as follows: (1) react actively after provoking; (2) slow in response after provoking; (3) no active response after provoking; (4) died. Blood histamine level was measured by testing whole blood samples through tail vein through an ELISA kit (Catalog No: IT6088, vendors). Samples were all restored in −80° C. refrigerator for later assessment of the concentration of histamine by an ELISA kit.
# Mice were sensitized via intraperitoneal injection of chicken ovalbumin (OVA) and aluminum potassium sulfate adjuvant and triggered an acute allergic reaction by injecting OVA as an allergen after three weeks. […] We measured the core temperature and respiratory rate of the sensitized mice during the induction of anaphylaxis.
compound,measurement,setting,value
CNC[C@H](O)c1ccc(O)c(O)c1 [epinephrine],allergic symptoms of mouse experiencing severe anaphylaxis,anaphylactic mouse model; [2],relief from allergic symptoms
same,body temperature of mouse experiencing severe anaphylaxis,anaphylactic mouse model; [2],immediate body temperature increase
same,"symptoms of anaphylaxis (hypothermia, reduced activity, opisthotonos)",anaphylactic mouse model; after intramuscular injection,obtained relief from these symptoms
"CCN(CC)c1ccc2c(-c3ccc(S(=O)(=O)O)cc3S(=O)(=O)[O-])c3ccc(=[N+](CC)CC)cc-3oc2c1 [RhB dye, sulforhodamine B]","dye released into mouse skin over different delivery times, with acoustics vs without acoustics",[1],increased delivery
